Reference: US9090593B2, “Bicyclic compounds as Pim inhibitors” (AMGEN INC., priority 2010, dated 2015)
Where a name gives a salt, the structure may show the parent alone. Read-outs that look alike come from different tables or passages of the source.

Assays:
[1] = target: T1, full length recombinant Pim-1 protein (Homo sapiens, UniProt P11309); assay: Pim-1 enzyme assay (HTRF, phosphorylation of biotinylated-BAD (S112) peptide); type: biochemical; details: read-out: Pim_1_IC50
T1 construct: by full length recombinant Pim-1, Pim-2, or Pim-3 protein; hexahistidine tag followed by a thrombin cleavage site (N); made in house; host or cells: Sf9 (baculovirus) or E. coli (pET28)
In short: (§1)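 Kinase: full-length human Pim-1/Pim-2, His6-thrombin tagged. Substrate biotin-BAD (S112) peptide. Buffer 60 mM Hepes pH 7.0, 0.05% BSA, 2 mM DTT. Stop 3 mM EDTA. Detection HTRF (Eu anti-pBAD/SA-APC). IC50 by 4-parameter logistic on POC.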

[2] = target: T2, full length recombinant Pim-2 protein (Homo sapiens, UniProt Q9P1W9); assay: Pim-2 enzyme assay (HTRF, phosphorylation of biotinylated-BAD (S112) peptide); type: biochemical; details: read-out: Pim2_IC50
T2 construct: by full length recombinant Pim-1, Pim-2, or Pim-3 protein; hexahistidine tag followed by a thrombin cleavage site (N); made in house; host or cells: Sf9 (baculovirus) or E. coli (pET28)
In short: as §1

[3] = target: T3, Pim-1 stably transfected into the U2OS human osteogenic sarcoma line (Homo sapiens, UniProt P11309); assay: Pim cell assay, phospho-BAD normalized against total BAD, U2OS stably transfected with Pim-1; type: cell-based
T3 construct: expressed in transfected cells; host or cells: U2OS human osteogenic sarcoma line
Protocol: (§2) The cell lines used in the assay were generated by the stable transfection of either Pim-1 or Pim-2 into the U2OS human osteogenic sarcoma line. The assay for determination of the Pim activity in the engineered U2OS cell lines measures levels of phospho-BAD normalized against total BAD protein levels. It was conducted as follows:
(§3) The adherent cells were dissociated from the flasks using non-enzymatic cell dissociation solution (Sigma # C5914). […] The cells were then incubated overnight at 37° C., 5% CO2.
(§4) In addition to the 10-point dosing curve of the test compound, DMSO alone was run as the high control.
(§5) This dilution in DMSO was then diluted again into cell growth medium. Aliquots (12 uL) of the compound diluted in growth medium were then transferred to the appropriate wells of the 96-well plates containing cells to yield a final DMSO concentration of 0.3%.
(§6) The cell plates containing lysis buffer were then immediately stored at −70° C.
(§7) These prepared lysates were then assayed for phospho and total BAD according to the manufacturer's protocols (Meso Scale Diagnostics, Cat# K15103C-3 & # K15103D-3). The plates were read on the MSD Sector Imager 6000, and results were calculated according to the assay protocols ((% Phosphoprotein=((2×Phospho signal)/(Phospho signal+Total signal))×100)).

[4] = target: T4, Pim-2 stably transfected into the U2OS human osteogenic sarcoma line (Homo sapiens, UniProt Q9P1W9); assay: Pim cell assay, phospho-BAD normalized against total BAD, U2OS stably transfected with Pim-2; type: cell-based
T4 construct: expressed in transfected cells; host or cells: U2OS human osteogenic sarcoma line
Protocol: as §2, §3, §4, §5, §6, §7

[5] = U2OS cells stably transfected with Pim-1, phospho-BAD, high dose […], read-out: Pim1_Cell_IC50
[6] = U2OS cells stably transfected with Pim-2, phospho-BAD, high dose […], read-out: Pim2_Cell_IC50
[7] = U2OS stably transfected with Pim-1, phospho-BAD normalized against total BAD, 29 min incubation, read-out: Pim1_Cell_IC50_
[8] = U2OS stably transfected with Pim-2, phospho-BAD normalized against total BAD, 29 min incubation, read-out: Pim2_Cell_IC50_

T2 sequence (Q9P1W9 whole entry): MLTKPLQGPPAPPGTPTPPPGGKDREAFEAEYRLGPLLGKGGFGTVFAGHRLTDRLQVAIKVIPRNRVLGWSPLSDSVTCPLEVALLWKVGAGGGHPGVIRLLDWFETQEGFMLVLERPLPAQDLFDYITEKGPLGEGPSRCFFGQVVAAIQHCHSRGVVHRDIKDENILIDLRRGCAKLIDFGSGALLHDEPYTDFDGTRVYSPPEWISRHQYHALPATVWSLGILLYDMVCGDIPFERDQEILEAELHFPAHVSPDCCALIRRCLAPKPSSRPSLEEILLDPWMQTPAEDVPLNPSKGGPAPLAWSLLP
T4 sequence (Q9P1W9 whole entry): as above
T3 sequence (P11309 whole entry): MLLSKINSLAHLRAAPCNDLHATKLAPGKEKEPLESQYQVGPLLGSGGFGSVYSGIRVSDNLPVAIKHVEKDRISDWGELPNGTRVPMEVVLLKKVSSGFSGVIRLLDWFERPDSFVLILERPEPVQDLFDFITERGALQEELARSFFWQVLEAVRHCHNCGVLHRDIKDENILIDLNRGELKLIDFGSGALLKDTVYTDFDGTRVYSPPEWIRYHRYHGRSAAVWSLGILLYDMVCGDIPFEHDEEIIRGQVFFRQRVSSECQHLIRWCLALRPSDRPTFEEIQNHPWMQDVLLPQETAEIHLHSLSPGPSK
T1 sequence (P11309 whole entry): as above

SMILES | IC50 ([1]; enzyme assay, Pim-1) [µM] | IC50 ([2]; enzyme assay, Pim-2) [µM] | IC50 [3, 5] [µM] | IC50 [4, 6] [µM] | IC50 [1] [µM] | IC50 [2] [µM] | IC50 [3, 7] [µM] | IC50 [4, 8] [µM]
Nc1cncc(-c2ccc3[nH]nc(-c4cncc(N5CCC(N)CC5)n4)c3c2)c1 [Example 73, 5-(3-(6-(4-amino-1-piperidinyl)-2-pyrazinyl)-1H-indazol-5-yl)-3-pyridinamine] | 0.001 | 0.003 | 0.885 | > 31.6 | – | – | – | –
COc1cncc(-c2ccc3[nH]nc(-c4cncc(N5CCC(N)CC5)n4)c3c2)c1 [Example 79, 1-(6-(5-(5-methoxy-3-pyridinyl)-1H-indazol-3-yl)-2-pyrazinyl)-4-piperidinamine] | 0.001 | 0.009 | 0.182 | 3.89 | – | – | – | –
NC1CCN(c2cncc(-c3n[nH]c4ccc(-c5cccnc5)cc34)n2)CC1 [Example 82, 1-(6-(5-(3-pyridinyl)-1H-indazol-3-yl)-2-pyrazinyl)-4-piperidinamine] | 0.001 | 0.007 | 0.171 | 7.81 | – | – | – | –
c1cc(-c2ccc3[nH]nc(-c4cncc(O[C@@H]5CCCNC5)n4)c3c2)nc(NC2CC2)n1 [Example 242, N-cyclopropyl-4-(3-(6-((3R)-3-piperidinyloxy)-2-pyrazinyl)-1H-indazol-5-yl)-2-pyrimidinamine] | – | – | – | – | 0.005 | 0.108 | 0.369 | 31.5
c1cc2[nH]cc(-c3cncc(C4CC4)n3)c2cc1-c1cncc(C2CC2)n1 [Example 245, 3,5-bis(6-cyclopropyl-2-pyrazinyl)-1H-indole] | – | – | – | – | 0.028 | 0.345 | 3.64 | > 31.6
c1cc2[nH]nc(-c3cncc(O[C@H]4CNCCC45CC5)n3)c2cc1C1CCOCC1 [Example 264, 3-(6-((4R)-6-azaspiro[25]oct-4-yloxy)-2-pyrazinyl)-5-(tetrahydro-2H-pyran-4-yl)-1H-indazole-2,2,2-trifluoroacetate] | – | – | – | – | 0.006 | 0.015 | 0.276 | > 10
CC(C)Nc1nc(-c2c[nH]c3ccc(-c4cncc(C5CC5)n4)cc23)cc(=O)[nH]1 [Example 287, 6-(5-(6-cyclopropylpyrazin-2-yl)-1H-indol-3-yl)-2-(isopropylamino) pyrimidin-4(3H)-one] | – | – | – | – | 0.006 | 0.087 | 1.31 | > 31.6
c1cc2[nH]cc(-c3cncc(O[C@@H]4CCCNC4)n3)c2cc1-c1cnn(C2CC2)c1 [Example 291, 5-(1-cyclopropyl-1H-pyrazol-4-yl)-3-(6-((3R)-3-piperidinyloxy)-2-pyrazinyl)-1H-indole] | – | – | – | – | 0.006 | 0.032 | 0.154 | 11.8
Oc1ncc(-c2ccc3[nH]cc(-c4cncc(O[C@@H]5CCCNC5)n4)c3c2)c(O)n1 [Example 293] | – | – | – | – | 0.016 | 0.06 | > 31.6 | > 31.6
COc1cc(OC)cc(-c2ccc3[nH]cc(-c4cncc(O[C@@H]5CCCNC5)n4)c3c2)c1 [Example 294] | – | – | – | – | 0.007 | 0.026 | 0.521 | 9.44
O=C(Nc1ccc(-c2ccc3[nH]cc(-c4cncc(O[C@@H]5CCCNC5)n4)c3c2)cc1)C1CC1 [Example 311] | – | – | – | – | 0.008 | 0.025 | 0.412 | > 31.6
OCc1cccc(-c2ccc3[nH]cc(-c4cncc(O[C@@H]5CCCNC5)n4)c3c2)c1 [Example 315] | – | – | – | – | 0.007 | 0.024 | 0.444 | 9.06
COc1ccc(-c2ccc3[nH]cc(-c4cncc(O[C@@H]5CCCNC5)n4)c3c2)cc1 [Example 321] | – | – | – | – | 0.005 | 0.019 | 0.662 | 23.6
CC(=O)Nc1ccc(-c2ccc3[nH]cc(-c4cncc(O[C@@H]5CCCNC5)n4)c3c2)cc1 [Example 327] | – | – | – | – | 0.005 | 0.019 | 0.666 | 8.06
N#Cc1ncccc1-c1ccc2[nH]cc(-c3cncc(O[C@@H]4CCCNC4)n3)c2c1 [Example 333] | – | – | – | – | 0.011 | 0.04 | 0.803 | > 10
c1cc2[nH]cc(-c3cncc(O[C@@H]4CCCNC4)n3)c2cc1-c1cnc2c(c1)CCCN2 [Example 335] | – | – | – | – | 0.005 | 0.072 | 1.06 | > 31.6
c1cc2cc(-c3ccc4[nH]cc(-c5cncc(O[C@@H]6CCCNC6)n5)c4c3)cnc2[nH]1 [Example 336] | – | – | – | – | 0.008 | 0.033 | 0.857 | > 10
Cc1n[nH]c2ncc(-c3ccc4[nH]cc(-c5cncc(O[C@@H]6CCCNC6)n5)c4c3)cc12 [Example 339] | – | – | – | – | 0.014 | 0.092 | 2.58 | > 31.6
Nc1ccc(-c2ccc3[nH]cc(-c4cncc(O[C@@H]5CCCNC5)n4)c3c2)cc1OC(F)(F)F [Example 341] | – | – | – | – | 0.009 | 0.069 | 1.27 | > 15.8
c1cc2c(cc1-c1ccc3[nH]cc(-c4cncc(O[C@@H]5CCCNC5)n4)c3c1)OCO2 [Example 343] | – | – | – | – | 0.004 | 0.019 | 1.21 | > 15.8

Further compounds by falling IC50 [1], results first:

IC50 ([1]; enzyme assay, Pim-1) [µM] | IC50 ([2]; enzyme assay, Pim-2) [µM] | IC50 [3, 5] [µM] | IC50 [4, 6] [µM] | IC50 [1] [µM] | IC50 [2] [µM] | IC50 [3, 7] [µM] | IC50 [4, 8] [µM] | SMILES
– | – | – | – | 0.004 | 0.008 | 0.18 | 5.76 | C1=C(c2ccc3[nH]nc(-c4cncc(O[C@H]5CNCCC56CC6)n4)c3c2)CCOC1 [Example 263, 3-(6-((4R)-6-azaspiro[25]oct-4-yloxy)-2-pyrazinyl)-5-(3,6-dihydro-2H-pyran-4-yl)-1H-indazole 2,2,2-trifluoroacetate salt]
– | – | – | – | 0.004 | 0.011 | 0.313 | 6.53 | COc1cc(-c2ccc3[nH]cc(-c4cncc(O[C@@H]5CCCNC5)n4)c3c2)c(F)cn1 [Example 290]
– | – | – | – | 0.004 | 0.019 | 0.649 | ≥ 35.2 | COc1ccc(-c2ccc3[nH]cc(-c4cncc(O[C@@H]5CCCNC5)n4)c3c2)cc1F [Example 292]
– | – | – | – | 0.004 | 0.018 | 0.125 | 17 | c1cc(N2CCOCC2)ccc1-c1ccc2[nH]cc(-c3cncc(O[C@@H]4CCCNC4)n3)c2c1 [Example 309, 5-(4-(4-morpholinyl)phenyl)-3-(6-((3R)-3-piperidinyloxy)-2-pyrazinyl)-1H-indole]
– | – | – | – | 0.004 | 0.034 | 0.957 | > 31.6 | CC(C)Oc1ccc(-c2ccc3[nH]cc(-c4cncc(O[C@@H]5CCCNC5)n4)c3c2)cc1 [Example 324]
– | – | – | – | 0.003 | 0.007 | 0.166 | 8.45 | Fc1cnccc1-c1ccc2[nH]cc(-c3cncc(O[C@@H]4CCCNC4)n3)c2c1 [Example 297, 5-(3-fluoro-4-pyridinyl)-3-(6-((3R)-3-piperidinyloxy)-2-pyrazinyl)-1H-indole]
– | – | – | – | 0.003 | 0.231 | 1.27 | > 31.6 | c1cc(-c2ccc3[nH]cc(-c4cncc(O[C@@H]5CCCNC5)n4)c3c2)nc(N2CCNCC2)c1 [Example 299]
– | – | – | – | 0.003 | 0.01 | 0.314 | 7.19 | N#Cc1ccccc1-c1ccc2[nH]cc(-c3cncc(O[C@@H]4CCCNC4)n3)c2c1 [Example 326]
– | – | – | – | 0.002 | 0.009 | 0.103 | 3.4 | OCc1ccc(-c2ccc3[nH]cc(-c4cncc(O[C@@H]5CCCNC5)n4)c3c2)cc1 [Example 316, (4-(3-(6-((3R)-3-piperidinyloxy)-2-pyrazinyl)-1H-indol-5-yl)phenyl)methanol]
– | – | – | – | 0.001 | 0.003 | 0.169 | > 10 | c1cc2[nH]nc(-c3cncc(C4CC4)n3)c2cc1-c1cncc(C2CC2)n1 [Example 244, 3,5-bis(6-cyclopropyl-2-pyrazinyl)-1H-indazole]
– | – | – | – | 0.001 | 0.002 | 2.47 | > 31.6 | NC1CCN(c2nc(-c3c[nH]c4ccc(-c5c(F)cccc5F)cc34)cc(=O)[nH]2)CC1 [Example 277, 2-(4-aminopiperidin-1-yl)-6-(5-(2,6-difluorophenyl)-1H-indol-3-yl)pyrimidin-4(3H)-one]
